Source: patent US9556165B2 (priority 2012, dated 2017)
Values after ≈ are worked out from the molar mass of the structure shown.

Columns and labels:
Experiment in all cases: MIC determination, broth microdilution (CLSI)
Format in all cases: cell-based
[1] = test system: K. pneumoniae 60; conditions: for MIC: Klebsiella pneumoniae, 60, strain 2
[2] = test system: P. aeruginosa 2297-con (AmpC derepressed); conditions: for MIC: Pseudomonas aeruginosa, read-out: strain 8 MIC, strain 8
[3] = test system: C. freundii K21/3034; conditions: for MIC: Citrobacter freundii, K21/3034, strain 4
[4] = test system: B. fragilis 6688; conditions: Bacteroides fragilis, 6688, strain 15; read-out: strain 15 MIC
[5] = test system: E. coli ATCC25922; conditions: for MIC: Escherichia coli, ATCC25922, strain 1
[6] = test system: strain 21
[7] = test system: S. pneumoniae 113; conditions: Streptococcus pneumoniae, 113, strain 14; read-out: strain 14 MIC
[8] = test system: S. aureus 133; conditions: Staphylococcus aureus, 133, strain 11; read-out: strain 11 MIC
[9] = test system: H. influenzae ATCC 49247; conditions: Haemophilus influenzae, ATCC49247, strain 13; read-out: strain 13 MIC
[10] = test system: strain 20
[11] = test system: S. maltophilia ICB7569; conditions: Stenotrophomonas maltophilia, ICB7569, strain 10
[12] = test system: M. catarrhalis ICB489; conditions: for MIC: Moraxella catarrhalis, ICB489, strain 12
[13] = test system: E. coli J62-TEM-3; conditions: Escherichia coli, J62TEM3, read-out: strain 18 MIC, strain 18
[14] = test system: P. aeruginosa PAO1; conditions: for MIC: Pseudomonas aeruginosa, PAO1, strain 6
[15] = test system: E. cloacae 34654; conditions: for MIC: Enterobacter cloacae, 34654, strain 3
[16] = test system: E. coli J62; conditions: for MIC: Escherichia coli, J62, strain 17, read-out: strain 17 MIC
[17] = test system: M. morganii 126/3048; conditions: for MIC: Morganella morganii, 126/3048, strain 5
[18] = test system: P. aeruginosa 2297 (AmpC wt); conditions: for MIC: Pseudomonas aeruginosa, strain 7
[19] = test system: A. baumannii ATCC15308; conditions: Acinetobacter baumannii, ATCC15308, strain 9
[20] = test system: strain 19

SMILES | MIC [4] | MIC [7] | MIC [8] | MIC [9] | MIC [11] | MIC [13] | MIC [19] | MIC [1] | MIC [3] | MIC [5] | MIC [6] | MIC [10] | MIC [12] | MIC [14] | MIC [15] | MIC [16] | MIC [17] | MIC [20] | MIC [2] | MIC [18] | other results
C[C@H]1[C@H](NC(=O)/C(=N\OC(COc2ccc(C(=N)N)cc2)C(=O)O)c2csc(N)n2)C(=O)N1S(=O)(=O)O (mixture of isomers) [Example 26A, (2S and 2R)-2-({[(1Z)-1-(2-Amino-1,3-thiazol-4-yl)-2-{[(2S,3S)-2-methyl-4-oxo-1-sulfoazetidin-3-yl]amino}-2-oxoethylidene]amino}oxy)-3-(4-carbamidinoyl-phenoxy)propanoic acid] | 8 mg/L | 32 mg/L | ≤ 0.063 mg/L | 2 mg/L | 16 mg/L | 32 mg/L | 8 mg/L |  |  |  |  |  |  |  |  |  |  |  |  |  | strain 2 MIC ([1]; strain 2): 0.031 mg/L; strain 8 MIC ([2]; strain 8): 8 mg/L; strain 4 MIC ([3]; strain 4): ≦0.063 mg/L; strain 1 MIC ([5]; strain 1): ≦0.063 mg/L; strain 21 MIC [6]: 0.125 mg/L; strain 20 MIC [10]: 0.125 mg/L; strain 12 MIC ([12]; strain 12): ≦0.063 mg/L; strain 6 MIC ([14]; strain 6): 1 mg/L; strain 3 MIC ([15]; strain 3): 0.125 mg/L; strain 17 MIC ([16]; strain 17): 0.125 mg/L; strain 5 MIC ([17]; strain 5): ≦0.063 mg/L; strain 7 MIC [18]: 2 mg/L; strain 19 MIC [20]: ≦0.063 mg/L
C[C@H]1[C@H](NC(=O)/C(=N\OCCOc2ccc(C(=N)N)c(O)c2)c2csc(N)n2)C(=O)N1S(=O)(=O)O [Example 2, (2S,3S)-3-{[(2Z)-2-(2-Amino-1,3-thiazol-4-yl)-2-{[2-(4-carbamimidoyl-3-hydroxyphenoxy)ethoxy]imino}acetyl]amino}-2-methyl-4-oxoazetidine-1-sulfonic acid] | 16 mg/L (≈ 30.3 µM) | 16 mg/L (≈ 30.3 µM) | 0.25 mg/L (≈ 0.474 µM) | 0.5 mg/L (≈ 0.948 µM) | 0.125 mg/L (≈ 0.237 µM) | 32 mg/L (≈ 60.7 µM) | 4 mg/L (≈ 7.58 µM) | 0.125 mg/L (≈ 0.237 µM) | 0.125 mg/L (≈ 0.237 µM) | 0.125 mg/L (≈ 0.237 µM) | 0.25 mg/L (≈ 0.474 µM) | 0.125 mg/L (≈ 0.237 µM) | ≤ 0.063 mg/L | 2 mg/L (≈ 3.79 µM) | 0.25 mg/L (≈ 0.474 µM) | 0.25 mg/L (≈ 0.474 µM) | ≤ 0.063 mg/L | 0.125 mg/L (≈ 0.237 µM) |  |  | 
C[C@H]1[C@H](NC(=O)/C(=N\OCCOc2ccc(C(=N)N)cc2)c2csc(N)n2)C(=O)N1S(=O)(=O)O [Example 9, (2S,3S)-3-{[(2Z)-2-(2-Amino-1,3-thiazol-4-yl)-2-{[2-(4-carbamimidoylphenoxy)ethoxy]imino}acetyl]amino}-2-methyl-4-oxoazetidine-1-sulfonic acid] | 8 mg/L (≈ 15.6 µM) | 4 mg/L (≈ 7.82 µM) | ≤ 0.063 mg/L | 0.25 mg/L (≈ 0.489 µM) | 32 mg/L (≈ 62.6 µM) | 16 mg/L (≈ 31.3 µM) | 0.5 mg/L (≈ 0.977 µM) | 0.125 mg/L (≈ 0.244 µM) | 0.125 mg/L (≈ 0.244 µM) | 0.125 mg/L (≈ 0.244 µM) | 0.125 mg/L (≈ 0.244 µM) | 0.125 mg/L (≈ 0.244 µM) | ≤ 0.063 mg/L | 2 mg/L (≈ 3.91 µM) | 0.125 mg/L (≈ 0.244 µM) | 0.25 mg/L (≈ 0.489 µM) | 0.125 mg/L (≈ 0.244 µM) | 0.125 mg/L (≈ 0.244 µM) | 16 mg/L (≈ 31.3 µM) | 2 mg/L (≈ 3.91 µM) | 
C[C@@H]1[C@H](NC(=O)/C(=N\OCCOc2ccc(C(=N)N)cc2)c2csc(N)n2)C(=O)N1S(=O)(=O)O [Example 11, (2R,3S)-3-{[(2Z)-2-(2-Amino-1,3-thiazol-4-yl)-2-{[2-(4-carbamimidoylphenoxy)ethoxy]imino}acetyl]amino}-2-methyl-4-oxoazetidine-1-sulfonic acid] | 8 mg/L (≈ 15.6 µM) | 4 mg/L (≈ 7.82 µM) | 0.125 mg/L (≈ 0.244 µM) | 0.5 mg/L (≈ 0.977 µM) | 32 mg/L (≈ 62.6 µM) | 8 mg/L (≈ 15.6 µM) | 0.5 mg/L (≈ 0.977 µM) | ≤ 0.125 mg/L | ≤ 0.125 mg/L | 0.125 mg/L (≈ 0.244 µM) | 0.25 mg/L (≈ 0.489 µM) | 0.25 mg/L (≈ 0.489 µM) | 0.125 mg/L (≈ 0.244 µM) | 1 mg/L (≈ 1.95 µM) | ≤ 0.063 mg/L | 0.25 mg/L (≈ 0.489 µM) | ≤ 0.063 mg/L | 0.25 mg/L (≈ 0.489 µM) | 16 mg/L (≈ 31.3 µM) | 2 mg/L (≈ 3.91 µM) | 
